Source: the NIST ThermoML archive (doi:10.1021/acs.jced.5b00944)
± gives the expanded uncertainty stated by the source.

Experiment: xn = mol fraction of the nth substance listed
Conditions: for viscosity / speed of sound / mass density: 100 kPa, Liquid; for viscosity: Capillary tube (Ostwald / Ubbelohde) method; for speed of sound: Sing-around technique in a fixed-path interferometer; for mass density: Vibrating tube method; for surface tension liquid-gas: Capillary rise

CCCC[N+]1(C)CCCC1.N#CN=C=[N-] [1-butyl-1-methylpyrrolidinium dicyanamide] + O
Conditions	mass density [kg/m3]	speed of sound [m/s]	surface tension liquid-gas [mN/m]	viscosity [mPa·s]
287.92 K, x2 = 0.0329	–	–	–	46.3 ± 0.7
287.92 K, x2 = 0.0994	–	–	–	44.7 ± 0.7
287.94 K, x2 = 0.2615	–	–	–	37.1 ± 0.5
287.94 K, x2 = 0.4463	–	–	–	28.9 ± 0.4
287.95 K, x2 = 0.6509	–	–	–	19.6 ± 0.3
287.95 K, x2 = 0.751	–	–	–	14.4 ± 0.2
287.97 K, x2 = 0.9	–	–	–	5.51 ± 0.07
288.15 K, x2 = 0	1019.11 ± 4.1	1834.4 ± 2.2	–	–
288.15 K, x2 = 0.0329	1019.02 ± 4.1	1834.2 ± 2.2	–	–
288.15 K, x2 = 0.0993	1018.74 ± 4	1833.5 ± 2.1	–	–
288.15 K, x2 = 0.2615	1018.26 ± 4	1832.2 ± 1.8	–	–
288.15 K, x2 = 0.4463	1017.61 ± 4	1832.1 ± 1.5	–	–
288.15 K, x2 = 0.6509	1016.78 ± 4	1831.3 ± 1.3	–	–
288.15 K, x2 = 0.751	1016.44 ± 4	1825 ± 1.1	–	–
288.15 K, x2 = 0.9	1012.13 ± 4	1752.9 ± 1.1	–	–
288.3 K, x2 = 0.0329	–	–	51.9 ± 1.3	–
288.8 K, x2 = 0.0994	–	–	52.4 ± 1.3	–
288.8 K, x2 = 0.751	–	–	54.3 ± 1.2	–
288.8 K, x2 = 0.9	–	–	54.3 ± 1.2	–
288.9 K, x2 = 0.6509	–	–	50.6 ± 1.2	–
289 K, x2 = 0.4463	–	–	51.8 ± 1.2	–
289.1 K, x2 = 0.2615	–	–	52 ± 1.3	–
297.5 K, x2 = 0.0329	–	–	51.4 ± 1.3	–
297.6 K, x2 = 0.9	–	–	53.7 ± 1.2	–
297.7 K, x2 = 0.4463	–	–	51.5 ± 1.2	–
297.8 K, x2 = 0.0994	–	–	52 ± 1.3	–
297.8 K, x2 = 0.751	–	–	53.3 ± 1.2	–
297.9 K, x2 = 0.2615	–	–	51.6 ± 1.3	–
297.9 K, x2 = 0.6509	–	–	50.1 ± 1.2	–
297.93 K, x2 = 0.0329	–	–	–	31.9 ± 0.5
297.93 K, x2 = 0.4463	–	–	–	20 ± 0.3
297.94 K, x2 = 0.2615	–	–	–	26.1 ± 0.4
297.95 K, x2 = 0.0994	–	–	–	31.1 ± 0.5
297.95 K, x2 = 0.751	–	–	–	10 ± 0.1
297.96 K, x2 = 0.6509	–	–	–	13.4 ± 0.2
297.96 K, x2 = 0.9	–	–	–	3.93 ± 0.05
298.15 K, x2 = 0	1013.48 ± 4.1	1809.6 ± 2.2	–	–
298.15 K, x2 = 0.0329	1013.44 ± 4.1	1809.6 ± 2.2	–	–
298.15 K, x2 = 0.0993	1013.07 ± 4	1808.5 ± 2.1	–	–
298.15 K, x2 = 0.2615	1012.53 ± 4	1807.6 ± 1.8	–	–
298.15 K, x2 = 0.4463	1011.78 ± 4	1808.1 ± 1.5	–	–
298.15 K, x2 = 0.6509	1010.69 ± 4	1808.3 ± 1.2	–	–
298.15 K, x2 = 0.751	1010.21 ± 4	1803.2 ± 1.1	–	–
298.15 K, x2 = 0.9	1006.14 ± 4	1740.1 ± 1	–	–
305.2 K, x2 = 0.2615	–	–	51 ± 1.3	–
305.5 K, x2 = 0.0994	–	–	51.7 ± 1.3	–
305.5 K, x2 = 0.751	–	–	52.6 ± 1.2	–
305.6 K, x2 = 0.4463	–	–	51 ± 1.2	–
305.6 K, x2 = 0.9	–	–	52.9 ± 1.2	–
306 K, x2 = 0.0329	–	–	50.8 ± 1.3	–
306 K, x2 = 0.6509	–	–	49.8 ± 1.2	–
307.99 K, x2 = 0.4463	–	–	–	14.6 ± 0.2
308 K, x2 = 0.0329	–	–	–	23.1 ± 0.4
308.01 K, x2 = 0.0994	–	–	–	22.5 ± 0.4
308.02 K, x2 = 0.751	–	–	–	7.24 ± 0.09
308.02 K, x2 = 0.9	–	–	–	2.98 ± 0.04
308.03 K, x2 = 0.2615	–	–	–	19 ± 0.3
308.03 K, x2 = 0.6509	–	–	–	9.74 ± 0.13
308.15 K, x2 = 0	1007.82 ± 4.1	1785.2 ± 2.2	–	–
308.15 K, x2 = 0.0329	1007.7 ± 4.1	1785.2 ± 2.2	–	–
308.15 K, x2 = 0.0993	1007.45 ± 4	1784.4 ± 2.1	–	–
308.15 K, x2 = 0.2615	1006.85 ± 4	1783.8 ± 1.8	–	–
308.15 K, x2 = 0.4463	1005.97 ± 4	1784.8 ± 1.5	–	–
308.15 K, x2 = 0.6509	1004.63 ± 4	1785.9 ± 1.2	–	–
308.15 K, x2 = 0.751	1003.96 ± 4	1781.8 ± 1.1	–	–
308.15 K, x2 = 0.9	999.99 ± 4	1726.6 ± 1	–	–
312.9 K, x2 = 0.2615	–	–	50.6 ± 1.3	–
313.2 K, x2 = 0.751	–	–	52 ± 1.2	–
313.5 K, x2 = 0.4463	–	–	50.4 ± 1.2	–
313.8 K, x2 = 0.0994	–	–	51.1 ± 1.3	–
313.8 K, x2 = 0.6509	–	–	49.3 ± 1.2	–
313.9 K, x2 = 0.0329	–	–	50.3 ± 1.3	–
316.2 K, x2 = 0.9	–	–	52.2 ± 1.2	–
318.02 K, x2 = 0.0329	–	–	–	17.4 ± 0.3
318.03 K, x2 = 0.4463	–	–	–	11 ± 0.2
318.04 K, x2 = 0.751	–	–	–	5.47 ± 0.07
318.05 K, x2 = 0.2615	–	–	–	14.4 ± 0.2
318.05 K, x2 = 0.9	–	–	–	2.33 ± 0.03
318.06 K, x2 = 0.0994	–	–	–	16.9 ± 0.3
318.06 K, x2 = 0.6509	–	–	–	7.37 ± 0.09
318.15 K, x2 = 0	1002.33 ± 4.1	1761 ± 2.2	–	–
318.15 K, x2 = 0.0329	1002.21 ± 4.1	1760.7 ± 2.2	–	–
318.15 K, x2 = 0.0993	1001.88 ± 4	1760 ± 2.1	–	–
318.15 K, x2 = 0.2615	1001.22 ± 4	1759.7 ± 1.8	–	–
318.15 K, x2 = 0.4463	1000.21 ± 4	1761.1 ± 1.5	–	–
318.15 K, x2 = 0.6509	998.57 ± 4	1762.5 ± 1.2	–	–
318.15 K, x2 = 0.751	997.71 ± 4	1759.7 ± 1.1	–	–
318.15 K, x2 = 0.9	993.7 ± 4	1711.2 ± 1	–	–
323.9 K, x2 = 0.0994	–	–	50.3 ± 1.3	–
324.1 K, x2 = 0.2615	–	–	49.6 ± 1.3	–
324.2 K, x2 = 0.751	–	–	51.1 ± 1.2	–
324.4 K, x2 = 0.9	–	–	51.7 ± 1.2	–
324.5 K, x2 = 0.4463	–	–	49.6 ± 1.2	–
324.6 K, x2 = 0.6509	–	–	48.9 ± 1.2	–
324.9 K, x2 = 0.0329	–	–	49.5 ± 1.3	–
333.04 K, x2 = 0.0329	–	–	–	12.1 ± 0.2
333.07 K, x2 = 0.4463	–	–	–	7.72 ± 0.11
333.07 K, x2 = 0.751	–	–	–	3.81 ± 0.05
333.07 K, x2 = 0.9	–	–	–	1.68 ± 0.02
333.08 K, x2 = 0.2615	–	–	–	10.1 ± 0.2
333.09 K, x2 = 0.6509	–	–	–	5.14 ± 0.07
333.1 K, x2 = 0.0994	–	–	–	11.7 ± 0.2
333.15 K, x2 = 0	994.14 ± 4.1	1724.7 ± 2.2	–	–
333.15 K, x2 = 0.0329	993.99 ± 4.1	1724.4 ± 2.2	–	–
333.15 K, x2 = 0.0993	993.64 ± 4	1723.9 ± 2.1	–	–
333.15 K, x2 = 0.2615	992.88 ± 4	1724 ± 1.8	–	–
333.15 K, x2 = 0.4463	991.65 ± 4	1725.6 ± 1.5	–	–
333.15 K, x2 = 0.6509	989.51 ± 4	1727 ± 1.2	–	–
333.15 K, x2 = 0.751	988.31 ± 4	1724.7 ± 1.1	–	–
333.15 K, x2 = 0.9	983.98 ± 4	1684.9 ± 1	–	–
